These results are taken from publication PMC8020607 (Computational Biology and Chemistry, 2021).

This assay has as its target T1, C5a (recombinant human C5a) (Homo sapiens, UniProt P01031).
T1 sequence (P01031 678-751 limits assumed): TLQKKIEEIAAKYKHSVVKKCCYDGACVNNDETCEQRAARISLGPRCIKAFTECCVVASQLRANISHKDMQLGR
Kind of assay: intrinsic tyrosine fluorescence titration, non-linear fit. It is filed as binding.

`C[C@]12C=CC(=O)C=C1CC[C@@H]1[C@@H]2C(=O)C[C@@]2(C)[C@H]1CC[C@]2(O)C(=O)CO` [prednisone]: the Kd was approximately 380 nM.
